Here are results for seven compounds from patent US8846671B2, “Heterocyclic alkynyl benzene compounds and medical compositions and uses thereof” (Guangzhou Institute of Biomedicine and Health, Chinese …, priority 2010, dated 2014).

Read-outs that look alike come from different tables or passages of the source.

Data set [1] addresses BAF3-T315I cells (Ba/F3 cell line stably expressing BCR/ABL T315I) (Homo sapiens, UniProt P00519, T315I, cells depend on it). Kind of data set: tumor cell proliferation, MTT or CCK8 assay, 72 h incubation. The data set is classed as cell-based, mice. On the procedure: (§1) The heterocyclic alkynyl benzene compounds at different concentrations (1×10^−10˜1×10^−5M) were incubated for 72 hours individually applied to 6 cell lines K562 (human CML cell line), MOLT-4 (human ALL cell line), U937 (human CML cell line), MEG-01 (human CML cell line), L78 (human lung cancer cell line), Ba/F3-T315I (mice Pro-B cells transformed with Bcr-AblT315I and STI57′-resistant cell line). After incubation for 72 hrs, cell proliferation was then determined by MTT assay or CCK8 assay, and 4 hr incubation is further conducted, the absorbance at 570 nm (CCK8, 450 nm, 650 nm) was measured using enzyme Microplate Reader.
A general note: Tetrazolium dyes change colour on reduction, which living cells bring about.

Data set [2] deals with K562R cells (imatinib-resistant cell line). The data set is described as above. Format: cell-based. The note with it: Homo sapiens, K-562R, imatinib-resistant K562R, read-out: IC50 on tumor cell proliferation, K562R cells.
The subject of data set [3] is MOLT-4 (Human acute lymphoblastic leukemia cell line). The description is as above. The note with it: MOLT-4, 72 h, MTT or CCK8, no unit in cell, read-out: IC50 on tumor cell proliferation, MOLT-4. Format: cell-based. On the procedure: as §1, with “Reader. […] Based on the inhibition potency of the heterocyclic alkynyl benzene compounds on the cell proliferation, IC50 values were calculated and summarized in the Table 1 and Table 2 (The compounds used were synthesized by Examples 1-40, and the compounds are marked with Drug No. series in Table 1).” for “Reader.”

Data set [4] concerns U937 Cell line. The description is as above. Format: cell-based. The conditions noted are these: Homo sapiens, U-937; 72 h, MTT or CCK8; no unit in cell; read-out: IC50 on tumor cell proliferation, U937. The protocol:
as §1, with “Reader. […] Based on the inhibition potency of the heterocyclic alkynyl benzene compounds on the cell proliferation, IC50 values were calculated and summarized in the Table 1 and Table 2 (The compounds used were synthesized by Examples 1-40, and the compounds are marked with Drug No. series in Table 1).” for “Reader.”

Data set [5] has as its system K562 (human chronic myelogenous leukemia cell line). The description is as above. Format: cell-based. The conditions noted are these: K562, 72 h, read-out: IC50 on tumor cell proliferation, K562. On the procedure:
as §1, with “Reader. […] Based on the inhibition potency of the heterocyclic alkynyl benzene compounds on the cell proliferation, IC50 values were calculated and summarized in the Table 1 and Table 2 (The compounds used were synthesized by Examples 1-40, and the compounds are marked with Drug No. series in Table 1).” for “Reader.”

A short description of data set [6]: Pharmacokinetics and bioavailability in rats. The data set is classed as in vivo. The note with it: SD rats; corresponding pharmaceutical acceptable salt forms. The protocol: Pharmacokinetics and bioavailability in rats. […] The blood samples were collected at the proper time points after administration, add heparin-anticoagulant, and the supernatants of the blood samples were collected (3000 rpm, 10 min) and stored at -20° C. for HPLC-MS analysis. After protein-precipitation procedure with acetonitrile, supernatants were collected after 3000 rpm, 10 min for analysis with HPLC-MS. The data were analyzed with software DAS2.0 to separately acquire the parameters of compartment models and non-compartment models. The bioavailability was calculated according to AUC data.

For data set [7], the system named is MEG-01 (Human megakaryoblastic leukaemia cell line). The experiment in a line: tumor cell proliferation, MTT or CCK8 assay, 72 h incubation. Format: cell-based. The note with it: MEG-01, 72 h, MTT or CCK8, no unit in cell, read-out: IC50 on tumor cell proliferation, MEG-01. On the procedure: as §1, with “Reader. […] Based on the inhibition potency of the heterocyclic alkynyl benzene compounds on the cell proliferation, IC50 values were calculated and summarized in the Table 1 and Table 2 (The compounds used were synthesized by Examples 1-40, and the compounds are marked with Drug No. series in Table 1).” for “Reader.”

The mark [8] stands for this setting: Ba/F3 expressing BCR/ABL T315I, 72 h, Table 1, read-out: IC50 on tumor cell proliferation, BAF3-T315I cells.

For `Cc1ccc(C(=O)Nc2ccc(CN3CCN(CCO)CC3)c(C(F)(F)F)c2)cc1C#Cc1cnc2ccnn2c1` [D942, N-(4-((4-(2-hydroxyethyl)piperazin-1-yl)methyl)-3-(trifluoromethyl)phenyl)-4-methyl-3-(2-(pyrazolo[1,5-a]pyrimidin-6-yl)ethynyl)benzamide], in data set [1] (setting [8]), the GI50 amounted to 102 nM. Moreover, the IC50 in data set [2] turned out to be 44 nM; in data set [3] it was 674 nM; in data set [4] it was 1300 nM; in data set [5] (MTT or CCK8, no unit in cell), 3.54 nM.

For the compound `Cc1ccc(C(=O)Nc2ccc(CN3CCN(C)CC3)c(C(F)(F)F)c2)cc1C#Cc1cnc2ccnn2c1` [D856, 4-methyl-N-(4-((4-methylpiperazin-1-yl)methyl)-3-(trifluoromethyl)phenyl)-3-(2-(pyrazolo[1,5-a]pyrimidin-6-yl)ethynyl)benzamide], the “pharmacokinetics parameters, overall judgement” value in data set [6] is reported as “adequate pharmacokinetics parameters”. In data set [1] (setting [8]), the GI50 was 10.8 nM. For the same compound, the IC50 in data set [2] came out at 67 nM; in data set [3], 499 nM; in data set [4] it was 2000 nM; in data set [5] (MTT or CCK8, no unit in cell), 2.24 nM.

With `Cc1ccc(C(=O)Nc2ccc(CN3CCOCC3)c(C(F)(F)F)c2)cc1C#Cc1cnc2ccnn2c1` [D931, 4-methyl-N-(4-(morpholinomethyl)-3-(trifluoromethyl)phenyl)-3-(2-(pyrazolo[1,5-a]pyrimidin-6-yl)ethynyl)benzamide], the GI50 in data set [1] (setting [8]) amounted to 2750 nM. Besides, the IC50 in data set [2] was 510 nM; in data set [3], 7430 nM; in data set [4], 4600 nM; in data set [5] (MTT or CCK8, no unit in cell), greater than 10000 nM.

As for `Cc1ccc(C(=O)Nc2cc(-n3ccnc3)cc(C(F)(F)F)c2)cc1C#Cc1cnc(NC2CC2)nc1` [D729, N-(3-(1H-imidazol-1-yl)-5-(trifluoromethyl)phenyl)-3-(2-(2-(cyclopropylamino)pyrimidin-5-yl)ethynyl)-4-methylbenzamide], the GI50 was less than 100 nM in data set [1] (Ba/F3 carrying T315I Bcr-Abl, STI571-resistant, Table 2, read-out: IC50 on the cell proliferation of Ba/F3 (T315I)) and 49.7 nM in data set [1] (setting [8]). Besides, the IC50 in data set [2] worked out at 72.7 nM; in data set [7] it was 6580 nM; in data set [3] it was 5750 nM; in data set [5] (MTT or CCK8, nM), 2.09 nM.

With `Cc1cn(-c2cc(NC(=O)c3ccc(C)c(C#Cc4cnc5ccnn5c4)c3)cc(C(C)(C)C)c2)cn1` [D941, N-(3-tert-butyl-5-(4-methyl-1H-imidazol-1-yl)phenyl)-4-methyl-3-(2-(pyrazolo[1,5-a]pyrimidin-6-yl)ethynyl)benzamide], the GI50 in data set [1] (setting [8]) was determined as 102 nM. Also, the IC50 in data set [2] stood at 410 nM; in data set [3], 340 nM; in data set [4], 696 nM; in data set [5] (MTT or CCK8, no unit in cell), 2.34 nM.

As to `Cc1ccc(C(=O)Nc2ccc(CN3CC[C@H](N(C)C)C3)c(C(F)(F)F)c2)cc1C#Cc1cnc2ccnn2c1` [D940, (S)—N-(4-((3-(dimethylamino)pyrrolidin-1-yl)methyl)-3-(trifluoromethyl)phenyl)-4-methyl-3-(2-(pyrazolo[1,5-a]pyrimidin-6-yl)ethynyl)benzamide], in data set [1] (setting [8]), the GI50 came to 245 nM. The IC50 in data set [2] turned out to be 32 nM; in data set [3], 955 nM; in data set [4], 715 nM; in data set [5] (MTT or CCK8, no unit in cell), 65.7 nM.

Regarding `Cc1ccc(C(=O)Nc2ccc(CN3CC[C@@H](N(C)C)C3)c(C(F)(F)F)c2)cc1C#Cc1cnc2ccnn2c1` [D943], in data set [1] (setting [8]), the GI50 amounted to 618 nM. The IC50 was determined as 320 nM in data set [2]; 1630 nM in data set [3]; 2120 nM in data set [4]; 8.3 nM in data set [5] (MTT or CCK8, no unit in cell).
